# Measurements reported in PubChem BioAssay (NCI).
# “And” between values parts separate entries of the source, which are not always exact repeats. Equal entries are not always repeated.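 Five compound concentrations were applied to cells in 96-well plates for 48 hours; endpoints were derived by simple linear interpolation of the resulting dose-response curve. The concentration for full growth arrest is given as TGI.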
# Columns and labels:
# Assay in all cases: DTP human tumour cell line panel, 48 h
# A498 renal = tested on: A498 renal
# A549 NSCLC = tested on: A549 NSCLC
# ACHN renal = tested on: ACHN renal
# CAKI-1 renal = tested on: CAKI-1 renal
# EKVX NSCLC = tested on: EKVX NSCLC
# HOP-62 NSCLC = tested on: HOP-62 NSCLC
# HT29 colon = tested on: HT29 colon
# IGROV1 ovarian = tested on: IGROV1 ovarian
# M14 melanoma = tested on: M14 melanoma
# MCF7 breast = tested on: MCF7 breast
# MDA-N = tested on: MDA-N
# NCI-H522 lung = tested on: NCI-H522 lung
# OVCAR-5 ovarian = tested on: OVCAR-5 ovarian
# SF-295 CNS = tested on: SF-295 CNS
# SK-OV-3 ovarian = tested on: SK-OV-3 ovarian
# SN12C renal = tested on: SN12C renal
# SNB-75 CNS = tested on: SNB-75 CNS
# SR leukemia = tested on: SR leukemia
Structure (SMILES),TGI (A498 renal),TGI (A549 NSCLC),TGI (ACHN renal),TGI (CAKI-1 renal),TGI (EKVX NSCLC),TGI (HOP-62 NSCLC),TGI (HT29 colon),TGI (IGROV1 ovarian),TGI (M14 melanoma),TGI (MCF7 breast),TGI (MDA-N),TGI (NCI-H522 lung),TGI (OVCAR-5 ovarian),TGI (SF-295 CNS),TGI (SK-OV-3 ovarian),TGI (SN12C renal),TGI (SNB-75 CNS),TGI (SR leukemia)
CN1C(=O)[C@@H]2N(CSC2(C)C)C1=S,> 100 µM,> 100 µM,> 100 µM,> 100 µM,> 100 µM,> 100 µM,> 100 µM,> 100 µM,> 100 µM,> 100 µM,> 100 µM,> 100 µM,> 100 µM,> 100 µM,> 100 µM,> 100 µM,> 100 µM,> 100 µM
COc1cc(S(=O)(=O)Nc2nc(-c3ccc(N)cc3)cs2)ccc1Cl,> 100 µM,> 100 µM,> 100 µM,> 100 µM,> 100 µM,> 100 µM,> 100 µM,> 100 µM,> 100 µM,> 100 µM,> 100 µM,> 100 µM,> 100 µM,> 100 µM,> 100 µM,> 100 µM,> 100 µM,> 100 µM
OCc1ccc2c(c1)CC1(C2)Cc2cc3c(cc2C1)CCC3,35.4 µM,> 100 µM,> 82.4 µM,> 100 µM,> 100 µM,> 46.5 µM,> 100 µM,> 100 µM,> 100 µM,> 100 µM,1.74 µM,> 27.6 µM,> 100 µM,> 44.5 µM,> 100 µM,> 50.8 µM,8.18 µM,> 100 µM
CC#Cc1cc2c(cc1O)CC[C@@H]1[C@@H]2CC[C@]2(C)[C@@H](O)CC[C@@H]12,27.9 µM,> 37.8 µM,> 69.6 µM,> 69.6 µM,26 µM,16 µM,30.5 µM,38.1 µM,17.7 µM,64.3 µM,0.547 µM,2.71 µM,48.4 µM,2.73 µM,> 62.2 µM,22.8 µM,27.6 µM,25.7 µM
CC(C)(C)OC(=O)NC(Cc1ccc(OCc2ccccc2)cn1)C(=O)NCc1ccccc1 (configuration not stated),> 100 µM,> 100 µM,> 100 µM,> 100 µM,99.3 µM,56.1 µM,> 100 µM,> 100 µM,47.8 µM,97.9 µM,43.8 µM,47.1 µM,> 100 µM,51.6 µM,51.6 µM,64.6 µM,78.5 µM,30.5 µM
COC(=O)[C@@H]1C2OC(C)(C)OC2CN1C(=O)OCc1ccccc1 (some centres not stated),> 100 µM,> 100 µM,> 100 µM,> 100 µM,> 100 µM,> 100 µM,> 100 µM,> 100 µM,> 100 µM,> 100 µM,> 100 µM,> 100 µM,> 100 µM,> 100 µM,> 100 µM,> 100 µM,> 100 µM,> 100 µM
O=C(Nc1sccc1S(=O)(=O)c1ccc(Cl)cc1)C(F)(F)F,> 100 µM,> 100 µM,> 100 µM,62.5 µM,> 100 µM,> 100 µM,> 100 µM,> 100 µM,> 100 µM,> 100 µM,77.3 µM,> 100 µM,> 100 µM,> 100 µM,> 100 µM,54.6 µM,71.6 µM,58.3 µM
CCO/C=N/C1=C(C#N)C(c2ccc(Cl)cc2)c2c(-c3ccccc3)nn(-c3ccccc3)c2O1 (configuration not stated),19.9 µM,21.5 µM,29.5 µM,36 µM,> 31.6 µM,86.5 µM,64.9 µM,45.2 µM,20.3 µM,25 µM,45.8 µM,18.2 µM,> 70.1 µM,32.2 µM,48.2 µM,> 100 µM,29.1 µM,> 100 µM
CN(C)c1nc(=NCc2cccs2)ss1,> 10 µM,> 10 µM,> 10 µM,> 10 µM,> 10 µM,> 10 µM,> 10 µM,> 10 µM,> 10 µM,> 10 µM,> 10 µM,9.57 µM,> 10 µM,> 10 µM,> 10 µM,> 10 µM,> 10 µM,> 4.9 µM
COc1ccc2oc(=O)c(CC=C(C)C)c(O)c2c1C,> 100 µM,> 100 µM,> 100 µM,> 100 µM,> 100 µM,> 100 µM,> 100 µM,> 100 µM,> 100 µM,> 100 µM,> 100 µM,> 100 µM,> 100 µM,> 100 µM,> 100 µM,> 100 µM,> 100 µM,> 100 µM
COc1ccc2c(c1)CC[C@@H]1[C@@H]2CC[C@]2(C)C(=O)/C(=C/c3ccncc3)C[C@@H]12,87.6 µM,> 100 µM,> 100 µM,> 100 µM,> 100 µM,54.9 µM,> 100 µM,> 100 µM,> 100 µM,> 100 µM,> 100 µM,92.1 µM,> 100 µM,66.6 µM,> 100 µM,> 100 µM,> 100 µM,> 100 µM
Cc1ccc(C(CC(=O)C(C)(C)CN2CCCCC2)SCCS(=O)(=O)O)cc1 (configuration not stated),48.7 µM,> 100 µM,70.8 µM,51 µM,66.5 µM,78.8 µM,72.8 µM,> 100 µM,50.1 µM,83.8 µM,> 100 µM,51.2 µM,> 100 µM,73.4 µM,91 µM,94.8 µM,96.4 µM,45.3 µM
Cc1ccc(CC2(OCCN(C)C)CCC(C(C)(C)C)CC2)cc1 (configuration not stated),28.6 µM and 27.1 µM,14 µM and 20.4 µM,19.1 µM and 20.5 µM,17.7 µM and 15.3 µM,21.6 µM and 28 µM,11.1 µM and 8.4 µM,5.15 µM and 5.9 µM,19.4 µM and 21.5 µM,3.36 µM and 3.35 µM,7.74 µM and 8.45 µM,6.96 µM and 5.28 µM,9.28 µM and 10.8 µM,14 µM and 13.9 µM,9.86 µM and 9.5 µM,20.9 µM and 23.6 µM,17.6 µM and 17.8 µM,21.9 µM and 20.3 µM,4.67 µM and 5.58 µM
CC1=C(C#N)C2C(=C(N)Oc3ccccc32)C(N)=N1 (configuration not stated),74.2 µM,> 100 µM,81.8 µM,53.9 µM,73.8 µM,> 100 µM,87.7 µM,76.7 µM,64.6 µM,62.9 µM,> 100 µM,36.2 µM,91.6 µM,> 100 µM,> 100 µM,72.8 µM,64.1 µM,> 100 µM
COc1ccc(N2C(=O)c3cccnc3S2(=O)=O)cc1,> 100 µM,> 100 µM,> 100 µM,> 100 µM,> 100 µM,> 100 µM,> 100 µM,> 100 µM,> 100 µM,> 100 µM,> 100 µM,> 100 µM,> 100 µM,> 100 µM,> 100 µM,> 100 µM,> 100 µM,> 100 µM
CC(C)c1c(O[Si](C(C)C)(C(C)C)C(C)C)c2c3c(ccc4c3c1OC4(C)C)C(C)CC2 (configuration not stated),> 100 µM,> 100 µM,> 100 µM,> 100 µM,> 100 µM,> 100 µM,> 100 µM,> 100 µM,> 100 µM,> 100 µM,> 100 µM,> 100 µM,> 100 µM,> 100 µM,> 100 µM,> 100 µM,> 100 µM,> 100 µM
Cc1ccsc1C(=O)C(CC(=O)c1cccs1)c1ccsc1 (configuration not stated),> 100 µM,> 100 µM,> 100 µM,> 100 µM,> 100 µM,> 100 µM,> 100 µM,> 100 µM,> 100 µM,> 100 µM,> 100 µM,> 100 µM,> 100 µM,> 100 µM,> 100 µM,> 100 µM,> 100 µM,> 100 µM
COc1cc(Br)cc2nc(-c3cccs3)oc12,> 100 µM,> 100 µM,> 100 µM,> 100 µM,> 100 µM,> 92.1 µM,> 100 µM,> 100 µM,> 100 µM,> 100 µM,> 100 µM,> 100 µM,> 100 µM,> 100 µM,> 100 µM,> 100 µM,> 85.9 µM,> 100 µM
S=C(N/N=C(/c1ccccc1)c1ccccn1)Nc1ccc(Cl)cc1,9.4 µM,14 µM,9.01 µM,9.37 µM,15.5 µM,16.6 µM,> 44.3 µM,12.9 µM,2.81 µM,7.16 µM,9.57 µM,11.5 µM,6.2 µM,11.3 µM,6.81 µM,13.4 µM,8.84 µM,6.75 µM
